Experiments:
[1] = xn = mol fraction of the nth substance listed; settings: Wilhelmy plate method
[2] = refractive index (Na D-line) (dimensionless); xn = mol fraction of the nth substance listed; settings: 100.5 kPa, Liquid, Standard Abbe refractometry

CC(=O)OCc1ccccc1 [benzyl ethanoate] + CCO
Settings | refractive index, 288.15 K | refractive index, 298.18 K | refractive index, 308.15 K | refractive index, 318.15 K | surface tension liquid-gas, 288.15 K [mN/m] | surface tension liquid-gas, 298.18 K [mN/m] | surface tension liquid-gas, 308.15 K [mN/m] | surface tension liquid-gas, 318.15 K [mN/m]
[1], x1 = 0.05 | – | – | – | – | 24 | 23.2 | 22.3 | 21.3
[1], x1 = 0.1 | – | – | – | – | 24.8 | 23.9 | 23 | 22
[1], x1 = 0.15 | – | – | – | – | 25.5 | 24.57 | 23.63 | 22.6
[1], x1 = 0.2 | – | – | – | – | 26.1 | 25.18 | 24.23 | 23.2
[1], x1 = 0.25 | – | – | – | – | 26.7 | 25.77 | 24.83 | 23.8
[1], x1 = 0.3 | – | – | – | – | 27.3 | 26.36 | 25.43 | 24.4
[1], x1 = 0.35 | – | – | – | – | 28 | 27.02 | 26.07 | 25.03
[1], x1 = 0.4 | – | – | – | – | 28.7 | 27.69 | 26.72 | 25.66
[1], x1 = 0.45 | – | – | – | – | 29.4 | 28.37 | 27.38 | 26.3
[1], x1 = 0.5 | – | – | – | – | 30.1 | 29.02 | 28.03 | 26.93
[1], x1 = 0.55 | – | – | – | – | 30.8 | 29.69 | 28.67 | 27.56
[1], x1 = 0.6 | – | – | – | – | 31.5 | 30.36 | 29.3 | 28.17
[1], x1 = 0.65 | – | – | – | – | 32.2 | 31.02 | 29.94 | 28.78
[1], x1 = 0.7 | – | – | – | – | 32.9 | 31.68 | 30.58 | 29.41
[1], x1 = 0.75 | – | – | – | – | 33.62 | 32.37 | 31.24 | 30.06
[1], x1 = 0.8 | – | – | – | – | 34.4 | 33.08 | 31.93 | 30.75
[1], x1 = 0.85 | – | – | – | – | 35.2 | 33.92 | 32.8 | 31.6
[1], x1 = 0.9 | – | – | – | – | 36.1 | 34.8 | 33.7 | 32.45
[1], x1 = 0.95 | – | – | – | – | 36.9 | 35.6 | 34.5 | 33.3
[1], x1 = 1 | – | – | – | – | 37.7 | 36.4 | 35.3 | 34.1
[2], x1 = 0.05 | 1.38022 | 1.37602 | 1.37164 | 1.36738 | – | – | – | –
[2], x1 = 0.1 | 1.39462 | 1.39033 | 1.38588 | 1.38161 | – | – | – | –
[2], x1 = 0.15 | 1.40725 | 1.40288 | 1.39843 | 1.39409 | – | – | – | –
[2], x1 = 0.2 | 1.41836 | 1.41395 | 1.40945 | 1.40506 | – | – | – | –
[2], x1 = 0.25 | 1.42813 | 1.42372 | 1.41929 | 1.41487 | – | – | – | –
[2], x1 = 0.3 | 1.43696 | 1.43255 | 1.4281 | 1.42364 | – | – | – | –
[2], x1 = 0.35 | 1.44489 | 1.44048 | 1.43604 | 1.43155 | – | – | – | –
[2], x1 = 0.4 | 1.45211 | 1.44767 | 1.44323 | 1.4387 | – | – | – | –
[2], x1 = 0.45 | 1.45868 | 1.4542 | 1.44974 | 1.44517 | – | – | – | –
[2], x1 = 0.5 | 1.4647 | 1.46016 | 1.45571 | 1.4511 | – | – | – | –
[2], x1 = 0.55 | 1.4702 | 1.46565 | 1.46119 | 1.45653 | – | – | – | –
[2], x1 = 0.6 | 1.47521 | 1.47065 | 1.46619 | 1.46154 | – | – | – | –
[2], x1 = 0.65 | 1.47987 | 1.47531 | 1.47082 | 1.46613 | – | – | – | –
[2], x1 = 0.7 | 1.48418 | 1.47958 | 1.47508 | 1.47036 | – | – | – | –
[2], x1 = 0.75 | 1.48819 | 1.48358 | 1.47907 | 1.47434 | – | – | – | –
[2], x1 = 0.8 | 1.49191 | 1.48729 | 1.48279 | 1.47804 | – | – | – | –
[2], x1 = 0.85 | 1.49539 | 1.49076 | 1.48626 | 1.48148 | – | – | – | –
[2], x1 = 0.9 | 1.49871 | 1.49408 | 1.48959 | 1.48481 | – | – | – | –
[2], x1 = 0.95 | 1.5017 | 1.49709 | 1.49262 | 1.48783 | – | – | – | –
[2], x1 = 1 | 1.50439 | 1.49982 | 1.49539 | 1.49064 | – | – | – | –

CCC(=O)OCc1ccccc1 [benzyl propanoate] + CCO
Settings | refractive index, 288.15 K | refractive index, 298.18 K | refractive index, 308.15 K | refractive index, 318.15 K | surface tension liquid-gas, 288.15 K [mN/m] | surface tension liquid-gas, 298.18 K [mN/m] | surface tension liquid-gas, 308.15 K [mN/m] | surface tension liquid-gas, 318.15 K [mN/m]
[1], x1 = 0.05 | – | – | – | – | 24 | 23.2 | 22.3 | 21.34
[1], x1 = 0.1 | – | – | – | – | 24.8 | 24 | 23.1 | 22.1
[1], x1 = 0.15 | – | – | – | – | 25.5 | 24.64 | 23.7 | 22.7
[1], x1 = 0.2 | – | – | – | – | 26.13 | 25.25 | 24.3 | 23.3
[1], x1 = 0.25 | – | – | – | – | 26.7 | 25.78 | 24.82 | 23.8
[1], x1 = 0.3 | – | – | – | – | 27.23 | 26.3 | 25.32 | 24.3
[1], x1 = 0.35 | – | – | – | – | 27.76 | 26.8 | 25.8 | 24.78
[1], x1 = 0.4 | – | – | – | – | 28.3 | 27.31 | 26.3 | 25.28
[1], x1 = 0.45 | – | – | – | – | 28.85 | 27.84 | 26.82 | 25.78
[1], x1 = 0.5 | – | – | – | – | 29.4 | 28.36 | 27.33 | 26.28
[1], x1 = 0.55 | – | – | – | – | 29.95 | 28.89 | 27.85 | 26.78
[1], x1 = 0.6 | – | – | – | – | 30.5 | 29.43 | 28.37 | 27.28
[1], x1 = 0.65 | – | – | – | – | 31.06 | 29.97 | 28.88 | 27.78
[1], x1 = 0.7 | – | – | – | – | 31.62 | 30.52 | 29.4 | 28.3
[1], x1 = 0.75 | – | – | – | – | 32.23 | 31.1 | 29.96 | 28.83
[1], x1 = 0.8 | – | – | – | – | 32.88 | 31.7 | 30.55 | 29.4
[1], x1 = 0.85 | – | – | – | – | 33.7 | 32.5 | 31.3 | 30.1
[1], x1 = 0.9 | – | – | – | – | 34.5 | 33.3 | 32.1 | 30.9
[1], x1 = 0.95 | – | – | – | – | 35.2 | 34 | 32.8 | 31.6
[1], x1 = 1 | – | – | – | – | 36 | 34.8 | 33.6 | 32.4
[2], x1 = 0.05 | 1.38108 | 1.37691 | 1.37266 | 1.36853 | – | – | – | –
[2], x1 = 0.1 | 1.39613 | 1.39185 | 1.38756 | 1.38322 | – | – | – | –
[2], x1 = 0.15 | 1.40891 | 1.40454 | 1.4002 | 1.39583 | – | – | – | –
[2], x1 = 0.2 | 1.42001 | 1.41559 | 1.41123 | 1.40687 | – | – | – | –
[2], x1 = 0.25 | 1.42966 | 1.42524 | 1.42091 | 1.41651 | – | – | – | –
[2], x1 = 0.3 | 1.43817 | 1.43375 | 1.42944 | 1.425 | – | – | – | –
[2], x1 = 0.35 | 1.44572 | 1.44128 | 1.43696 | 1.4325 | – | – | – | –
[2], x1 = 0.4 | 1.45248 | 1.44801 | 1.4437 | 1.43922 | – | – | – | –
[2], x1 = 0.45 | 1.45858 | 1.45408 | 1.44977 | 1.44524 | – | – | – | –
[2], x1 = 0.5 | 1.46414 | 1.45962 | 1.4553 | 1.45072 | – | – | – | –
[2], x1 = 0.55 | 1.46918 | 1.46464 | 1.46031 | 1.45569 | – | – | – | –
[2], x1 = 0.6 | 1.47384 | 1.46929 | 1.46494 | 1.46029 | – | – | – | –
[2], x1 = 0.65 | 1.47807 | 1.47352 | 1.46917 | 1.46451 | – | – | – | –
[2], x1 = 0.7 | 1.48193 | 1.47737 | 1.47302 | 1.46833 | – | – | – | –
[2], x1 = 0.75 | 1.48549 | 1.48092 | 1.47658 | 1.47188 | – | – | – | –
[2], x1 = 0.8 | 1.48877 | 1.48419 | 1.47986 | 1.47516 | – | – | – | –
[2], x1 = 0.85 | 1.49183 | 1.48725 | 1.48292 | 1.47824 | – | – | – | –
[2], x1 = 0.9 | 1.49464 | 1.49006 | 1.48574 | 1.48106 | – | – | – | –
[2], x1 = 0.95 | 1.49721 | 1.49265 | 1.48834 | 1.48366 | – | – | – | –
[2], x1 = 1 | 1.4995 | 1.49498 | 1.49074 | 1.48611 | – | – | – | –

— the NIST ThermoML archive (doi:10.1021/je060139a)
